Source: patent US5506217A, “Phosphonates as anti-cancer agents” (The University of British Columbia, priority 1994, dated 1996)
Where two headings read alike, the source gives them in different places.

Assays:
[1] = tested on: WEHI-3B tumor cells; assay: 3H-thymidine incorporation assay; type: cell-based; settings: Mus musculus, WEHI3B; for viability at 6.25 µM / viability at 12.5 µM / viability at 25 µM / viability at 50 µM: percent [3H]thymidine uptake, WEHI-3B, read-out: Cell Viability (% of Control); for viability at 12.5 µM: 12.50 μM
Experimental: (§1) Experiments were performed using a number of different rumor cell lines. Tumor cells were cultured in RPMI-1640 medium supplemented with 10% fetal bovine serum, penicillin (50 units/mL), streptomycin (50 μg/mL) and mercaptoethanol (5 μg/mL) in an atmosphere of 5% CO2. The cells were passaged weekly by serial 1/10 to 1/10,000 dilutions. The cell viability and growth were constantly monitored by staining with trypan blue exclusion dye or the incorporation of tritiated thymidine.
(§2) Inhibition of ^3 H-thymidine incorporation into the DNA of cells by a test compound is an indirect measurement of cell kill or growth inhibition, and reflects the anti-cancer activity of the compound.
Tumor cells (2×104 ^4 cells/well) were placed in 200 μL of medium in 96-well plastic microtiter plates; a further 5 μL of medium either with or without phosphonate was added. […] The cells were then harvested using a Brandel cell harvester (model M-12) and collected on Whatman glass microfilters. The radioactivity associated with the filters was quantified in a liquid scintillation counter, and the amount of ^3 H-thymidine incorporated into tumor cells treated with the phosphonate compound was calculated as a percentage of the amount of ^3 H-thymidine incorporated into untreated tumor cells.
The biological activities of 4-hexadecylthio-3(S ) -3-methoxybutane-l-phosponocholine and its enantiomer 4-hexadecylthio-3(R)-3-methoxybutane-1-phosphonocholine were studied on several cancer cell lines. […] The cell viability, was determined as percent[^3 H]thymidine uptake into the cell DNA. The following results are mean of five samples ± S.D.

[2] = tested on: HL-60 tumor cells; assay: 3H-thymidine incorporation assay; type: cell-based; settings: Homo sapiens, HL-60 cells, read-out: Thymidine uptake (% of control)
Experimental: as §1, §2
Tumor cells (2×104 ^4 cells/well) were placed in 200 μL of medium in 96-well plastic microtiter plates; a further 5 μL of medium either with or without phosphonate was added. After incubation for 24, 48 or 72 hours at 37° C. in a humidified atmosphere containing 5% CO2, the wells were pulsed with 0.1 μCi of ^3 H-thymidine for an additional 24 hours. The cells were then harvested using a Brandel cell harvester (model M-12) and collected on Whatman glass microfilters. The radioactivity associated with the filters was quantified in a liquid scintillation counter, and the amount of ^3 H-thymidine incorporated into tumor cells treated with the phosphonate compound was calculated as a percentage of the amount of ^3 H-thymidine incorporated into untreated tumor cells.

[3] = tested on: WEHI-3B tumor cells; assay: colonogenic cell survival assay; type: cell-based; settings: Mus musculus, WEHI3B, 120 h, methyl cellulose medium, five days, read-out: WEHI-3B Colonies Formed (Percentage of Control)
Experimental: Inhibition of colony formation in soft agar medium (colonogenic cell survival assay) is a more rigorous and direct measurement of cell kill or growth inhibition, and reflects the anti-cancer activity of the test compound. Briefly, tumor cells were cultured in petri dishes in methylcellulose, with or without a phosphonate test compound, and the number of colonies formed during a 5-day incubation period were counted.
Table 17 tabulates data obtained with two differrent phosphonate analogs using a colonogenic assay. Colonogenic assay is one of the most trusted tests for determination of effectiveness of an anti-cancer agent. The test is based on the formation of tumor colonies in vitro in a methyl cellulose or soft agar medium. The following results were obtained with the formation of colonies in methyl cellulose medium after five days in the presence or absence of four phosphonate analogs, two with a thioalkyl chain and two with an alkyloxy chain.

[4] = tested on: B-16/F10 melanoma cells; assay: B-16/F10 melanoma metastasis in C57BL/6 mice; type: in vivo; settings: 10 mg/kg IV (day 0, 4 and 8)
Experimental: Highly metastatic B-16/F10 melanoma cells were injected into the tail veins of female C57BL/6 mice (1×10^5 cells per mouse). Treatment of one group of mice with the phosphonate compound of the above formula (compound VIII), dissolved into 0.5mL ethanol, 0.5 mL cremaphor and 9.0 mL phosphate buffered saline, began three days after the tumor cells were injected. lntramuscular injections of 0.2 mL of the phosphonate emulsion (10 mg/kg/day) were given for 5 days per week for 2 weeks. A second group of mice were treated with Adriamycin (10 mg/kg given intravenously on days 0, 4 and 8) as a known anti-cancer drug control group, while a third group of mice received the vehicle emulsion alone. The mice were examined every day for general health, behaviour and body weight. Counts of metastatic melanomic tumor colonies found in the lungs, general observations of metastasis to distant organs and examination of organs (liver, kidneys, lungs and spleen) were taken at autopsy 4 weeks after treatment.

[5] = 24 hours, read-out: Thymidine uptake (% of control)
[6] = 48 hours, WEHI-3B cells, read-out: Thymidine uptake (% of control)
[7] = Table 3: 48 hours in title (text: 72 hours), WEHI-3B cells, read-out: Thymidine uptake (% of control)
[8] = Table 3: 48 hours in title (text: 72 hours)

CCCCCCCCCCCCCCCCCCOCC(CP(=O)([O-])OCC[N+](C)(C)C)OC (stereo not shown) [compound V]
activity at 0.62 µM [1, 5]: 137 ± 6% | activity at 0.62 µM [1, 6]: 93 ± 6% | activity at 0.62 µM [1, 7]: 85 ± 3% | activity at 1.25 µM [1, 5]: 93 ± 7% | activity at 1.25 µM [1, 6]: 90 ± 5% | activity at 1.25 µM [1, 7]: 86 ± 4% | activity at 2.5 µM [1, 5]: 91 ± 4% | activity at 2.5 µM [1, 6]: 86 ± 8% | activity at 2.5 µM [1, 7]: 82 ± 6% | activity at 5 µM [1, 5]: 88 ± 11% | activity at 5 µM [1, 6]: 61 ± 6% | activity at 5 µM [1, 7]: 60 ± 4% | activity at 10 µM [1, 5]: 76 ± 6% | activity at 10 µM [1, 6]: 23 ± 2% | activity at 10 µM [1, 7]: 26 ± 3% | activity at 20 µM [1, 5]: 48 ± 4% | activity at 20 µM [1, 6]: 18 ± 8% | activity at 20 µM [1, 7]: 10 ± 3% | activity at 40 µM ([1]; 40 μM, 24 hours, read-out: Thymidine uptake (% of control)): 43 ± 15% | activity at 0.62 µM ([2]; 48 hours): 84 ± 5% | activity at 0.62 µM [2, 8]: 93 ± 4% | activity at 1.25 µM ([2]; 48 hours): 76 ± 4% | activity at 1.25 µM [2, 8]: 81 ± 4% | activity at 2.5 µM ([2]; 48 hours): 63 ± 4% | activity at 2.5 µM [2, 8]: 66 ± 3% | activity at 5 µM ([2]; 48 hours): 24 ± 3% | activity at 5 µM [2, 8]: 16 ± 4% | activity at 10 µM ([2]; 48 hours): 3 ± 2% | activity at 10 µM [2, 8]: 5 ± 1% | activity at 20 µM ([2]; 48 hours): 1% | activity at 20 µM [2, 8]: 1 ± 0.9%

CCCCCCCCCCCCCCCCSC[C@H](CCP(=O)([O-])OCC[N+](C)(C)C)OC [Compound 1, 4hexadecylthio-3-O-methyl-3(S)-butane-phosphonocholine]
viability at 6.25 µM [1]: 55 ± 0.5% | viability at 12.5 µM [1]: 31 ± 3.4% | viability at 25 µM [1]: 21 ± 0.2% | viability at 50 µM [1]: 2 ± 1.4% | activity at 0.6 µM [3]: 88% | activity at 1.25 µM [3]: 95% | activity at 2.5 µM [3]: 55% | activity at 5 µM [3]: 52% | activity at 10 µM [3]: 22% | activity at 20 µM [3]: 9%

COc1cccc2c1C(=O)c1c(O)c3c(c(O)c1C2=O)C[C@@](O)(C(=O)CO)C[C@@H]3O[C@H]1C[C@H](N)[C@H](O)[C@H](C)O1 [Adriamycin, reference compound]
melanomic tumor colonies in the lungs (in words) [4]: none of the Adriamycin-treated mice developed melanomic tumor colonies in their lungs | Melanomic tumor colonies found in the lungs at autopsy ([4]; Mouse 1): 0 | Melanomic tumor colonies found in the lungs at autopsy ([4]; Mouse 2): 0 | Melanomic tumor colonies found in the lungs at autopsy ([4]; Mouse 3): 0 | Melanomic tumor colonies found in the lungs at autopsy ([4]; Mouse 4): 0 | Melanomic tumor colonies found in the lungs at autopsy ([4]; Mouse 5): 0 | Melanomic tumor colonies found in the lungs at autopsy ([4]; Mouse 6): 0

CCCCCCCCCCCCCCCCSC[C@@H](CCP(=O)([O-])OCC[N+](C)(C)C)OC [Compound 2, 4hexadecylthio-3-O-methyl-3(R)-butane-phosphonocholine]
viability at 6.25 µM [1]: 61 ± 0.4% | viability at 12.5 µM [1]: 24 ± 2.7% | viability at 25 µM [1]: 22 ± 4.6% | viability at 50 µM [1]: 12 ± 1.2% | activity at 0.6 µM [3]: 54% | activity at 1.25 µM [3]: 44% | activity at 2.5 µM [3]: 36% | activity at 5 µM [3]: 21% | activity at 10 µM [3]: 5% | activity at 20 µM [3]: 0%
